Experiments:
Assay type in all cases: in vivo
[1] = tested on: S. aureus Smith mutant containing the S486L mutation in RpoB; experiment: Mouse septicemia model, S. aureus Smith RpoB S486L; conditions: 1.4 × 10^7 CFU/mouse, three days
Procedure: (§1) Antimicrobial compounds may also be screened in vivo using a mouse septicemia model. In one particular example, mice were inoculated with an S. aureus Smith strain (Weiss) encoding a mutated microbial polypeptide (e.g., a mutated RpoB). Compounds were administered either IV or orally 30 minutes following inoculation, and observations was continued for three days. Compounds that promoted the survival of inoculated mice were identified as being compounds that are effective against antibiotic-resistant forms of S. aureus.
(§2) This was accounted for by the increased MIC against these mutant strains compared with the wild-type strain (MICs of 2 μg/ml and 0.004-0.008 μg/ml, respectively).

[2] = tested on: S. aureus Smith containing the RpoB H481Y alteration; experiment: Mouse septicemia model, S. aureus Smith RpoB H481Y; conditions: mouse, 1.1 × 10^7 CFU/mouse, three days
Procedure: as §1, §2

[3] = tested on: S. aureus Smith mutant containing the L466S mutation in RpoB; experiment: Mouse septicemia model, S. aureus Smith RpoB L466S; conditions: 1.1 × 10^7 CFU/mouse, three days
Procedure: as §1, §2

Question: Which “Survival (n = 5)” value ([1]; IV 0.6 mg/kg) does the source give for `O=C(O)c1cn(C2CC2)c2cc(N3CCNCC3)c(F)cc2c1=O` [Ciprofloxacin] here?
Answer: 1

Question: And the “Survival (n = 5)” value ([1]; IV 2.0 mg/kg)?
Answer: 3

Question: And the “Survival (n = 5)” value ([1]; IV 6.0 mg/kg)?
Answer: 5

Question: What about the “Survival (n = 5)” value ([2]; IV 0.6 mg/kg) of the same molecule?
Answer: 2

Question: And the “Survival (n = 5)” value ([2]; IV 2.0 mg/kg)?
Answer: 5

Question: And the “Survival (n = 5)” value ([2]; IV 6.0 mg/kg)?
Answer: 4

Question: And the “Survival (n = 5)” value ([3]; IV 0.6 mg/kg)?
Answer: 1

Question: And the “Survival (n = 5)” value ([3]; IV 2.0 mg/kg)?
Answer: 4

Question: And the “Survival (n = 5)” value ([3]; IV 6.0 mg/kg)?
Answer: 5

— patent publication US20050282242A1, “Screening assays for antimicrobial agents” (priority 2004, published 2005)
